Tests used:
Format in all cases: cell-based
P2X7ΔC receptor [1] = target: T1, P2X7ΔC receptor (Rattus norvegicus, UniProt Q64663); experiment: Whole-cell recordings in HEK293 cells transiently transfected with P2X7ΔC cDNA; settings: 30 μM BzATP, normal solution, holding potential −70 mV, transiently transfected HEK cells, n=18
T1 construct: the resulting protein (P2X7ΔC) was P2X7 (1-418); expressed in transfected cells; host or cells: HEK293 (transient)
T1 sequence (Q64663 1-418): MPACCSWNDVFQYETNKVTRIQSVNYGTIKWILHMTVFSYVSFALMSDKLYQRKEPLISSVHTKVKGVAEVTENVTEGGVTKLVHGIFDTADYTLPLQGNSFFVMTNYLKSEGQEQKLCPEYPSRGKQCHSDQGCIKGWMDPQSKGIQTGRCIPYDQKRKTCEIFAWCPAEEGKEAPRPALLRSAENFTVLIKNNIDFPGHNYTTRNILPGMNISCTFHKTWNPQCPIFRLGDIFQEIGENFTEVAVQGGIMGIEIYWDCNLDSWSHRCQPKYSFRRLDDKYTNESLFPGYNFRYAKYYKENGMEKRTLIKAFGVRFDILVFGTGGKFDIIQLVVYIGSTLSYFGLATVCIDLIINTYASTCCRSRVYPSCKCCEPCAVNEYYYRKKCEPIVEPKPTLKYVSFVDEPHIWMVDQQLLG
Text: A 440-base pair (bp) fragment of P2X7 was amplified with inosine-containing degenerate oligonucleotides from several peripheral autonomic ganglia (Buell et al, EMBO J. 15:55 (1996)). […] An additional 468 bp of 5′ cDNA was cloned by rapid amplification of cDNA ends-polymerase chain reaction (RACE-PCR; Life Technologies, Bethesda, MD) using poly(A)^+ RNA from the medial habenula. P2X7 receptor-specific sequences were amplified with two rounds of nested PCR, for which sense primers were […] and […] and antisense primers were […] and […]. A shared restriction site (Bgl II) permitted ligation of the RACE-PCR product and of the partial cDNA, yielding a construct that encoded the entire P2X7 protein. This chimera (GenBank accession number X95882) was expressed in pcDNA3 (Invitrogen, San Diego, Calif.), sequenced by fluorescent DNA sequencing (Perkin Elmer, Foster City, Calif.), and confirmed by isolation of other full-length P2X7 cDNAs from a rat brain cDNA library (Clontech, Palo Alto, Calif.). One of these included a stop codon 130 bp upstream from the ATG. The COOH-terminus was removed by excision of a Xcm I-Not I fragment, and the resulting protein (P2X7ΔC) was P2X7 (1-418). […]

P2X7 receptor = target: T2, P2X7 receptor (Rattus norvegicus, UniProt Q64663); experiment: YO-PRO-1 uptake, cell counts, in HEK cells stably expressing P2X7 receptor; settings: incubation with BzATP for 3 to 5 min, low concentration of divalent cations
T2 construct: yielding a construct that encoded the entire P2X7 protein; expressed in transfected cells
T2 sequence (Q64663 1-595): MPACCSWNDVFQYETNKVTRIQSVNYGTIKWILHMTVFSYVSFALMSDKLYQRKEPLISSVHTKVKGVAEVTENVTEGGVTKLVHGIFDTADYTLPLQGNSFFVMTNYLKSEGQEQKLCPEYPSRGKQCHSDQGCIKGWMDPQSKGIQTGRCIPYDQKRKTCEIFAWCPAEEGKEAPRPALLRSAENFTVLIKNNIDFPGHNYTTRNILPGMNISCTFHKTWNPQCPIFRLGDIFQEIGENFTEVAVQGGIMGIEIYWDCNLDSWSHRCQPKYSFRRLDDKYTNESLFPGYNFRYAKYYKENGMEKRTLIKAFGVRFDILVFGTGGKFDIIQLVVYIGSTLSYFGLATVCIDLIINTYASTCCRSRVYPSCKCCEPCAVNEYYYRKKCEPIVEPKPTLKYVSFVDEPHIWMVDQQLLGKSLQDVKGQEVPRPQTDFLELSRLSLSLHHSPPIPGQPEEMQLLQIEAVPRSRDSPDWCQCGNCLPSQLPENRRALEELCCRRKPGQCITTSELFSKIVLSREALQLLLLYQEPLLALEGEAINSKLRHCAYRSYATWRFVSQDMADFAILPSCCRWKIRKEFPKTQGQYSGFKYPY
Method: (§1) YO-PRO-1 (10 μM; Molecular Probes, Eugene, Oreg.) was added to the superfusion fluid during electrophysiological recordings 3 to 6 min before switching to low divalent solution and washed out upon switching back to normal divalent solution, after which the fluorescent lamp was turned on and cells were examined with a fluorescein isothiocyanate filter. For cell counts, 500 cells per cover slip were counted in each case.

P2X7ΔC receptor [2] = target: T1, P2X7ΔC receptor; experiment: YO-PRO-1 uptake in HEK cells expressing P2X7ΔC receptor; settings: low divalent solution, BzATP 300 μM
Method: as §1

## Nc1ncnc2c1ncn2[C@@H]1O[C@H](COP(=O)(O)OP(=O)(O)OP(=O)(O)O)[C@@H](OC(=O)c2ccc(C(=O)c3ccccc3)cc2)[C@H]1O [BzATP, 3′-O-(4-benzoyl)benzoyl ATP]
P2X7ΔC receptor [1]
  Current amplitude (mean±SEM) to BzATP: 590±95 pA
P2X7 receptor
  stably transfected cells that took up YO-PRO-1: > 85%
P2X7ΔC receptor [2]
  uptake of YO-PRO-1 induced by BzATP: no uptake of YO-PRO-1 was induced
